{"source": "patent US20040242974A1", "about": "“Treatment of refractory depression with an opiate antagonist and an antidepressant” (priority 2001, published 2004)", "key": {"[1]": {"test_system": "depression", "assay": "Clinical observation / patient report of response to medication (case reports)", "format": "in vivo, human", "conditions": "A person; for Response to antidepressants in the past: earlier episodes of unipolar depression, recurrent type", "description": "Both antidepressants were stopped and they were then administered desipramine (a tricyclic antidepressant) up to 150 mg./day for 4 weeks. […] Desipramine was discontinued and a person was started on a course of electric shock treatment (ECT) on an outpatient basis. They received a total number of 8 treatments, administered 2 times per week.\n(§1) Mrs. […] Lithium carbonate 300 mg. b.i.d. was added to the Prozac for one week, and afterward Prozac was increased over the next 4 weeks to 60 mg./day. […] In succession, they were tried on amitriptyline up to 300 mg./day with monitoring of medication blood levels, and venlafaxine up to 375 mg./day."}, "[2]": {"conditions": "A person; lithium carbonate 300 mg b.i.d.", "description": "as §1"}, "[3]": {"test_system": "refractory depression characterized by dissociation", "assay": "Beck Depression Inventory (BDI) questionnaire measuring depression in the treated patient", "format": "in vivo, human", "text": "Although any known test for measuring depression may be used as an indicator or measure of depression, the Beck Depression Inventory (“BDI”) is a preferred test for the present invention. The Beck Depression Inventory is a questionnaire developed by Aaron T. Beck, M.D. in 1978 to measure the presence and severity of depression. This test provides an exemplary method of measuring depression over the course of treatment according to the present invention. This test can also be used for reassessing a patient during treatment. The reassessment may be used to determine choice and dosage of antidepressant. The second edition of the Beck Depression Inventory is a 21-item questionnaire with each item rated on a four-point Likert scale (0-3) with total scores ranging from 0 to 63. A higher score indicates a more severe level of depression. Generally, a total score below 10 indicates no depression; a score from 10-16 indicates mild depression; 17-29 indicates moderate depression; and 30-63 indicates severe depression. According to the present invention, a score of about 10 or above would indicate diagnosis and treatment according to the present invention, with the patient more preferably presenting a BDI score of about 17 or above. A BDI score of less than about 10 is clinically non-significant. Eleven items of the BDI specifically identify how a depressed person thinks and feels about himself or herself. […] In paraphrased form they are: feeling disappointment in oneself; critical of oneself; suicidal thoughts; sadness; discouraged about the future; feelings of being punished; guilty; feeling like a failure; feeling a lack of satisfaction; feeling old/unattractive/ugly; and loss of interest in people. See S. Ramirez, supra."}, "[4]": {"test_system": "refractory depression characterized by dissociation", "assay": "Glover Numbing Scale (GNS) self-report questionnaire measuring numbness/dissociation in the treated patient", "format": "in vivo, human", "text": "The Glover Numbing Scale was constructed to measure symptoms associated with the numb responses, and provides an adequate measure for determining whether a patient is in a dissociated state. Both males and females with major depression evidenced a bimodal distribution of scores on the GNS with a distance of three standard deviations between their respective means. The GNS has identified a unique subgroup within the population of people diagnosed with major depression who manifest the unique phenomenological experience and associated symptoms of having no feelings. […] By evaluating a patient with the Glover Numbing Scale prior to administration of an opiate antagonist, and reassessing the patient after treatment, one of skill in the art can readily determine if the opiate antagonist is reversing or alleviating dissociation.\nIn one embodiment, the Glover Numbing Scale is a 35-item self-report questionnaire that systematically measures the frequency of experiences associated with “numbness,” an essential symptom of dissociation. Each item is rated on a seven-point scale by the patient, with scores corresponding to the following responses: 1, never; 2, very rarely; 3, rarely; 4, occasionally; 5, frequently, 6, very frequently; and 7, always. The highest possible score according to the Glover Numbing Scale is 245 (35 items by 7 points per item); a higher score indicates a more persistent degree of numbness and associated symptoms of dissociation. […] See S. Ramirez, supra at 194-95. According to the present invention, a Glover Numbing Scale score greater than about 100 should be considered consistent with the presence of dissociation. […] In another embodiment, a GNS score less than about 60 can be considered clinically non-significant.\nThat is, according to one embodiment of the present invention, a patient evaluated according to the Beck Depression Inventory to have a total BDI of about 10 or more, would be diagnosed as suffering from depression. According to the present invention, the depressed patient would then be evaluated according to the Glover Numbing Scale to assess the refractory nature of the patient's depression. If the patient scored about 100 or above, and positively to any of the eight salient items on the GNS, the patient is then affirmatively diagnosed as suffering from refractory depression characterized by dissociation according to one embodiment of the present invention. According to the present invention, the diagnosis may be made immediately after evaluating the patient according to the Glover Numbing Scale in conjunction with the Beck Depression Inventory in the context of an initial diagnostic assessment. The 35 items of the Glover Numbing Scale (GNS) describe the breadth of problems that can be associated with dissociation. Eight of the 35 items, however, uniquely discriminate dissociative experiences from symptoms of depression at a very high degree of probability. It is recommended that these eight items be scored separately at the time of the initial evaluation, and be used to monitor the patient's response to treatment at regular intervals until the patient is in full remission or has achieved the maximum beneficial response to medication.\nAt the time of remission the patient's responses to all of the other […] items on the GNS can be individually assessed by the clinician to ascertain if any residual symptoms are present which may require further attention. […]"}, "[5]": {"test_system": "patient", "assay": "Side effects reported by the patient during treatment", "format": "in vivo, human", "conditions": "A person; nalmefene 50 to 150 mg b.i.d.", "description": "They were reassessed with the BDI and the GNS. One week later a person was able to identify their mood as sad and lonely. […] Their BDI was now scored at 20 and their GNS score fell to 70.\nIt was decided to maintain the patient on amitriptyline while introducing nalmefene 50 mg. b.i.d. Four days later the dose of nalmefene was doubled. A person was monitored for side effects and changes of mood, using the eight salient items of the GNS and the eleven salient items of the BDI as guides. Mrs. […] During each visit the dose was […] 50 mg. to a final dose of 200 mg./day. Mrs."}, "[6]": {"conditions": "lithium carbonate 300 mg b.i.d. added to Prozac, Prozac increased to 60 mg/day over 4 weeks"}, "[7]": {"conditions": "A person, SAM-e 400 mg in divided doses, 800 mg five days later, started after the nalmefene course, one week afterward"}}, "note": "Values joined by “and” are separate entries in the source; they are usually repeats but may differ in a detail not shown here. Identical values can stand only once."}
{"smiles": "CC(NC(C)(C)C)C(=O)c1cccc(Cl)c1", "note": "(stereo not drawn) [Bupropion]", "values": [{"measurement": "Clinical response", "setting": "[1]; Bupropion (sustain released) up to 300 mg/day added to paxil, other than some improvement in level of energy", "result": "little benefit"}]}
{"smiles": "O=C([O-])[O-].[Li+].[Li+]", "note": "[Lithium carbonate]", "values": [{"measurement": "Serum lithium levels", "setting": "[2]", "result": "0.6 and 0.7"}, {"measurement": "Clinical response", "setting": "[1]; [6]", "result": "lack of response"}]}
{"smiles": "Fc1ccc([C@@H]2CCNC[C@H]2COc2ccc3c(c2)OCO3)cc1", "note": "[Paxil]", "values": [{"measurement": "Clinical response", "setting": "[1]; Paxil up to 60 mg/day, unsuccessfully administered", "result": "mild to moderate calming effect"}, {"measurement": "Response to antidepressants in the past", "setting": "[1]", "result": "good responses"}]}
{"smiles": "CNCCC(Oc1ccc(C(F)(F)F)cc1)c1ccccc1", "note": "(stereo not drawn) [Prozac]", "values": [{"measurement": "Clinical response", "setting": "[1]; initial treatment with Prozac, otherwise unchanged", "result": "reducing irritability"}, {"measurement": "Clinical response", "setting": "[1]; [6]", "result": "lack of response"}]}
{"smiles": "C[S+](CC[C@H](N)C(=O)[O-])C[C@H]1O[C@@H](n2cnc3c(N)ncnc32)[C@H](O)[C@@H]1O", "note": "(stereo partly drawn) [SAM-e]", "values": [{"measurement": "BDI score", "setting": "[3]; [7]", "result": 6}, {"measurement": "GNS score", "setting": "[4]; [7]", "result": 40}, {"measurement": "Clinical response (mood and energy)", "setting": "[1]; SAM-e 400 then 800 mg, started after the nalmefene course, one week afterward", "result": "marked improvement in mood and energy level"}]}
{"smiles": "CN(C)CCC=C1c2ccccc2CCc2ccccc21", "note": "[amitriptyline]", "values": [{"measurement": "Clinical response (antidepressant effect)", "setting": "[1]; amitriptyline maintained while nalmefene introduced (50 mg b.i.d., doubled after four days)", "result": "began to feel the antidepressant effect for the first time"}, {"measurement": "Clinical response", "setting": "[1]; amitriptyline up to 300 mg/day, calming effect with some reduction of sadness and emptiness", "result": "improved their level of energy"}]}
{"smiles": "CNCCCN1c2ccccc2CCc2ccccc21", "note": "[desipramine]", "values": [{"measurement": "Clinical response", "setting": "[1]; desipramine up to 150 mg/day for 4 weeks, remained essentially depressed", "result": "some decrease of crying spells"}, {"measurement": "Response to antidepressants in the past", "setting": "[1]", "result": "good responses"}]}
{"smiles": "C=C1CC[C@@]2(O)[C@H]3Cc4ccc(O)c5c4[C@@]2(CCN3CC2CC2)[C@H]1O5", "note": "[nalmefene]", "values": [{"measurement": "BDI score", "setting": "[3]; A person (Example 1), nalmefene 50 mg b.i.d. 3 days, 100 mg b.i.d. 4 days, then 150 mg b.i.d., one week later, score before treatment 23", "result": 20}, {"measurement": "BDI score", "setting": "[3]; A person (Example 2), one week after nalmefene 200 mg b.i.d. reached, maintained on amitriptyline (final 200 mg/day), score before 24", "result": 5}, {"measurement": "Side effects of drowsiness and tiredness", "setting": "[5]", "result": "mild and transient"}, {"measurement": "GNS score", "setting": "[4]; A person (Example 1), nalmefene 50 mg b.i.d. 3 days, 100 mg b.i.d. 4 days, then 150 mg b.i.d., one week later, score before treatment 142", "result": 70}, {"measurement": "GNS score", "setting": "[4]; A person (Example 2), one week after nalmefene 200 mg b.i.d. reached, maintained on amitriptyline (final 200 mg/day), score before 148", "result": 38}, {"measurement": "Salient items of the GNS", "setting": "[4]; A person, nalmefene 200 mg b.i.d. with amitriptyline", "result": "not to have been experienced"}, {"measurement": "Salient items of the GNS", "setting": "[4]; A person, nalmefene up to 150 mg b.i.d., during the past week", "result": "not have been experienced"}, {"measurement": "Clinical response (feelings)", "setting": "[1]; nalmefene up to 150 mg b.i.d., one week later", "result": "no longer experienced any lack of feelings"}, {"measurement": "Clinical response (patient report)", "setting": "[1]; one week after nalmefene 200 mg b.i.d. reached, with amitriptyline", "result": "felt their usual self once again"}]}
{"smiles": "COc1ccc(C(CN(C)C)C2(O)CCCCC2)cc1", "note": "(stereo not drawn) [venlafaxine]", "values": [{"measurement": "Clinical response", "setting": "[1]; venlafaxine up to 375 mg/day, calming effect with some reduction of sadness and emptiness", "result": "improved their level of energy"}]}
